# Reference: patent publication US10468120B2, “Method of generating a hyperpigmentation condition gene expression signature” (The Procter & Gamble Company, priority 2012, dated 2019)
# Key:
# [1] = system: tert-Keratinocyte (tKC) cells; experiment: C-map query with the tone composite benchmark signature (Niacinamide, Hexamidine, Sepiwhite, NAG); type: cell-based, human; settings: composite signature of Example 3
# Procedure: Individual experiments (referred to as batches) generally comprise 30 to 96 samples analyzed using Affymetrix GeneChip® technology platforms, containing 6 replicates of the vehicle control (e.g., DSMO), 2 replicate samples of a positive control that gives a strong reproducible effect in the cell type used, and samples of the test material/perturbagen. Replication of the test material is done in separate batches due to batch effects. In vitro testing was performed in 6-well plates to provide sufficient RNA for GeneChip® analysis (2-4 μg total RNA yield/well).
# Human telomerized keratinocytes (tKC) were obtained from the University of Texas, Southwestern Medical Center, Dallas, Tex. tKC cells were grown in EpiLife® media with 1× Human Keratinocyte Growth Supplement (Invitrogen, Carlsbad, Calif.) on collagen I coated cell culture flasks and plates (Becton Dickinson, Franklin Lakes, N.J.). Keratinocytes were seeded into 6-well plates at 20,000 cells/cm^2 24 hours before chemical exposure. Human skin fibroblasts (BJ cell line from ATCC, Manassas, Va.) were grown in Eagle's Minimal Essential Medium (ATCC) supplemented with 10% fetal bovine serum (HyClone, Logan, Utah) in normal cell culture flasks and plates (Corning, Lowell, Mass.). BJ fibroblasts were seeded into 6-well plates at 12,000 cells/cm^2 24 hours before chemical exposure. […]
# [2] = system: Chinese females, 25-55 years old with hyperpigmented spots; experiment: 9-week randomized, double-blind, vehicle-controlled, split-face tone benefit study; type: in vivo, human; settings: 0.05% in SC-99 vehicle, 2x a day, vs vehicle
# Source text: This Example provides evidence of the advantages of using composite signatures and illustrates clinical affirmation of the C-map model for predicting efficacy of skin-lightening agents. This Example supports embodiments related to composite signatures (as described at the end of Example 3). An illustrative “Skin Tone” Signature developed from a genomics study using a composite skin-lightening benchmark agent signature is derived from Niacinamide, Hexamidine, Sepiwhite, and NAG. The signature is used to query C-map and generate a list of potential skin-lightening agents. A top hit, Chlorhexidine Diactate (CD) is entered into clinical testing for confirmation of efficacy. The control for clinical efficacy is a 5% Niacinamide+1% Sepiwhite formulation in the control vehicle.
# Primary endpoints are changes in color spot area fraction (image analysis) and melanin spot area fraction (NC2) from baseline. Secondary endpoints are changes from baseline in L*a*b (color image analysis), mean melanin gray scale (NC2), and melanin evenness (NC2). Texture area fraction and pore area fraction are also evaluated to explore impact on other aspects relating to overall skin tone. […] Statistically significant superiority to the high efficacy benchmark skin active agent to vehicle performance is the clinical success criteria.
# Study Design: The experimental protocol included a 9-week (1-week preconditioning & 8-week treatment), randomized, double-blind, round robin, vehicle-controlled, split-face tone benefit study. The subject population included 330 Chinese females, 25-55 years old with hyperpigmented spots. 318 subjects completed the entire study. […] Olay Complete SPF 15 UV Moisturizing Lotion is concomitantly used during pre-conditioning and treatment. 0.5 g each test product per half-face (forehead to jaw line; ˜4 mg/cm^2) is dosed 2× a day (morning/evening). Color SAF and treatment area, Melanin SAF, gray scale, evenness by NC2, and additional measurement of Fine Lines and Wrinkle and Texture are by REAL 3.01A. Data collection points include baseline, and ends of weeks 4, 6 and 8. The tested hypothesis is that there is no difference in clinical endpoint versus the benchmark composition treatment. Study site is Kuntai Clinical Center, Beijing, China and study time frame is February 2010 (pre-conditioning) to April 2010.
structure (smiles),measurement,setting,value
"CC(=O)O.CC(=O)O.NC(=N\CCCCCC/N=C(N)/N=C(\N)Nc1ccc(Cl)cc1)/N=C(\N)Nc1ccc(Cl)cc1 [CD, Chlorhexidine Diacetate]",connectivity to the tone composite benchmark signature query,[1],top connectivity hit
same,Basal skin tone,[2]; week 8,demonstrated superiority
same,Pore area fraction,[2]; week 8,superior efficacy
same,Texture area fraction,[2]; week 8,superior efficacy
same,NC2 Melanin evenness test,[2]; weeks 6 and 8,superiority to the vehicle
same,spot area fraction NC2 test,[2]; weeks 6 and 8,significantly reduced fraction when compared to the vehicle
